# Laboratory results reported in ChEMBL document CHEMBL1629667, “Activities of dalbavancin against a worldwide collection of 81,673 gram-positive bacterial isolates” (2009).
# Experiments:
# Staphylococcus [1] = assay: Antimicrobial activity against Oxacillin-resistant coagulase-negative Staphylococcus by broth microdilution method; assay type: functional
# Enterococcus faecalis [2] = assay: Antimicrobial activity against Enterococcus faecalis VanA assessed as growth inhibition at 0.25 ug/ml by broth microdilution method; assay type: functional
# Enterococcus faecalis [3] = assay: Antimicrobial activity against Enterococcus faecalis VanB assessed as growth inhibition at 0.12 ug/ml by broth microdilution method; assay type: functional
# Enterococcus faecalis [4] = assay: Antimicrobial activity against Enterococcus faecalis VanA assessed as growth inhibition at 0.12 ug/ml by broth microdilution method; assay type: functional
# Staphylococcus aureus [5] = assay: Antimicrobial activity against Oxacillin-resistant Staphylococcus aureus by broth microdilution method; assay type: functional
# [6] = system: Streptococcus sp. 'group B'; assay: Antimicrobial activity against Beta-hemolytic Streptococcus sp. 'group B' assessed as growth inhibition at =<[…] ug/ml by broth microdilution method; assay type: functional
# Enterococcus faecium [7] = assay: Antimicrobial activity against Enterococcus faecium VanA assessed as growth inhibition at =<[…] ug/ml by broth microdilution method; assay type: functional
# Streptococcus [8] = assay: Antimicrobial activity against Beta-hemolytic Streptococcus by broth microdilution method; assay type: functional
# Enterococcus faecalis [9] = assay: Antimicrobial activity against Enterococcus faecalis VanA assessed as growth inhibition at 0.5 ug/ml by broth microdilution method; assay type: functional
# Enterococcus faecium [10] = assay: Antimicrobial activity against Enterococcus faecium VanA assessed as growth inhibition at 0.06 ug/ml by broth microdilution method; assay type: functional
# Enterococcus faecium [11] = assay: Antimicrobial activity against Enterococcus faecium VanA assessed as growth inhibition at 4 ug/ml by broth microdilution method; assay type: functional
# Enterococcus faecium [12] = assay: Antimicrobial activity against Enterococcus faecium VanB assessed as growth inhibition at 0.06 ug/ml by broth microdilution method; assay type: functional
# Streptococcus sp. [13] = assay: Antimicrobial activity against Beta-hemolytic Streptococcus sp. […]; assay type: functional, Group F
# Enterococcus faecalis [14] = assay: Antimicrobial activity against Enterococcus faecalis VanB assessed as growth inhibition at 2 ug/ml by broth microdilution method; assay type: functional
# Streptococcus [15] = assay: Antimicrobial activity against Beta-hemolytic Streptococcus assessed as percent susceptible isolate by broth microdilution method; assay type: functional
# Staphylococcus aureus [16] = assay: Antimicrobial activity against Oxacillin-resistant Staphylococcus aureus assessed as percent susceptible isolate by broth microdilution method; assay type: functional
# Enterococcus faecium [17] = assay: Antimicrobial activity against Enterococcus faecium VanB assessed as growth inhibition at =<[…] ug/ml by broth microdilution method; assay type: functional
# Enterococcus faecium [18] = assay: Antimicrobial activity against Enterococcus faecium VanA assessed as growth inhibition at 0.12 ug/ml by broth microdilution method; assay type: functional
# Enterococcus faecalis [19] = assay: Antimicrobial activity against Enterococcus faecalis VanB assessed as growth inhibition at =<[…] ug/ml by broth microdilution method; assay type: functional
# [20] = system: Streptococcus sp. 'group B'; assay: Antimicrobial activity against Beta-hemolytic Streptococcus sp. 'group B' assessed as growth inhibition at 0.12 ug/ml by broth microdilution method; assay type: functional
# Enterococcus faecium [21] = assay: Antimicrobial activity against Enterococcus faecium VanB assessed as growth inhibition at 0.12 ug/ml by broth microdilution method; assay type: functional
# Streptococcus sp. [22] = assay: Antimicrobial activity against Beta-hemolytic Streptococcus sp. Group F assessed as growth inhibition at 0.06 ug/ml by broth microdilution method; assay type: functional
# Enterococcus faecalis [23] = assay: Antimicrobial activity against Enterococcus faecalis VanB assessed as growth inhibition at 4 ug/ml by broth microdilution method; assay type: functional
# [24] = Antimicrobial activity against Beta-hemolytic Streptococcus sp. 'group G' assessed as growth inhibition at 0.06 ug/ml by broth microdilution method; assay type: functional
# Enterococcus faecium [25] = assay: Antimicrobial activity against Enterococcus faecium VanB assessed as growth inhibition at 1 ug/ml by broth microdilution method; assay type: functional
# Enterococcus faecium [26] = assay: Antimicrobial activity against Enterococcus faecium VanB assessed as growth inhibition at 0.25 ug/ml by broth microdilution method; assay type: functional
# Enterococcus faecium [27] = assay: Antimicrobial activity against Enterococcus faecium VanA assessed as growth inhibition at 0.5 ug/ml by broth microdilution method; assay type: functional
# Enterococcus faecalis [28] = assay: Antimicrobial activity against Enterococcus faecalis VanA assessed as growth inhibition at 1 ug/ml by broth microdilution method; assay type: functional
# Enterococcus faecium [29] = assay: Antimicrobial activity against Enterococcus faecium VanB assessed as growth inhibition at 4 ug/ml by broth microdilution method; assay type: functional
# Streptococcus [30] = assay: Antimicrobial activity against viridans group Streptococcus assessed as percent susceptible isolate by broth microdilution method; assay type: functional
# Enterococcus faecium [31] = assay: Antimicrobial activity against Enterococcus faecium VanA assessed as growth inhibition at 2 ug/ml by broth microdilution method; assay type: functional
# [32] = system: Streptococcus sp. 'group B'; assay: Antimicrobial activity against Beta-hemolytic Streptococcus sp. 'group B' assessed as growth inhibition at 0.06 ug/ml by broth microdilution method; assay type: functional
# Enterococcus faecalis [33] = assay: Antimicrobial activity against Enterococcus faecalis VanA assessed as growth inhibition at =<[…] ug/ml by broth microdilution method; assay type: functional
# Staphylococcus aureus [34] = assay: Antimicrobial activity against Oxacillin-resistant Staphylococcus aureus assessed as percent resistant isolate by broth microdilution method; assay type: functional
# Enterococcus faecalis [35] = assay: Antimicrobial activity against Enterococcus faecalis VanB assessed as growth inhibition at 0.25 ug/ml by broth microdilution method; assay type: functional
# Enterococcus faecium [36] = assay: Antimicrobial activity against Enterococcus faecium VanA assessed as growth inhibition at 1 ug/ml by broth microdilution method; assay type: functional
# Staphylococcus aureus [37] = assay: Antimicrobial activity against Oxacillin-susceptible Staphylococcus aureus assessed as percent resistant isolates by broth microdilution method; assay type: functional
# Streptococcus sp. [38] = assay: Antimicrobial activity against Beta-hemolytic Streptococcus sp. Group F assessed as growth inhibition at 0.12 ug/ml by broth microdilution method; assay type: functional
# [39] = system: Streptococcus sp. 'group A'; assay: Antimicrobial activity against Beta-hemolytic Streptococcus sp. 'group A' assessed as growth inhibition at 0.06 ug/ml by broth microdilution method; assay type: functional
# [40] = Antimicrobial activity against Beta-hemolytic Streptococcus sp. 'group G' assessed as growth inhibition at =<[…] ug/ml by broth microdilution method; assay type: functional
# Staphylococcus [41] = assay: Antimicrobial activity against Oxacillin-resistant coagulase-negative Staphylococcus assessed as percent susceptible isolate by broth microdilution method; assay type: functional
# Enterococcus faecalis [42] = assay: Antimicrobial activity against Enterococcus faecalis VanB assessed as growth inhibition at 1 ug/ml by broth microdilution method; assay type: functional
# Staphylococcus aureus [43] = assay: Antimicrobial activity against Oxacillin-susceptible Staphylococcus aureus assessed as percent susceptible isolate by broth microdilution method; assay type: functional
# Enterococcus faecium [44] = assay: Antimicrobial activity against Enterococcus faecium VanA assessed as growth inhibition at 0.25 ug/ml by broth microdilution method; assay type: functional
# [45] = system: Streptococcus sp. 'group A'; assay: Antimicrobial activity against Beta-hemolytic Streptococcus sp. 'group A' assessed as growth inhibition at 0.25 ug/ml by broth microdilution method; assay type: functional
# Staphylococcus aureus [46] = assay: Antimicrobial activity against Oxacillin-susceptible Staphylococcus aureus by broth microdilution method; assay type: functional
# Staphylococcus [47] = assay: Antimicrobial activity against Oxacillin-susceptible coagulase-negative Staphylococcus assessed as percent resistant isolate by broth microdilution method; assay type: functional
# Enterococcus faecalis [48] = assay: Antimicrobial activity against Enterococcus faecalis VanB assessed as growth inhibition at 0.5 ug/ml by broth microdilution method; assay type: functional
# [49] = system: Streptococcus sp. 'group A'; assay: Antimicrobial activity against Beta-hemolytic Streptococcus sp. 'group A' assessed as growth inhibition at =<[…] ug/ml by broth microdilution method; assay type: functional
smiles,measurement,setting,value
CN[C@H](CC(C)C)C(=O)N[C@H]1C(=O)N[C@@H](CC(N)=O)C(=O)N[C@H]2C(=O)N[C@H]3C(=O)N[C@H](C(=O)N[C@H](C(=O)O)c4cc(O)cc(O)c4-c4cc3ccc4O)[C@H](O)c3ccc(c(Cl)c3)Oc3cc2cc(c3O[C@@H]2O[C@H](CO)[C@@H](O)[C@H](O)[C@H]2O[C@H]2C[C@](C)(N)[C@H](O)[C@H](C)O2)Oc2ccc(cc2Cl)[C@H]1O [VANCOMYCIN],MIC50,Staphylococcus [1],1 µg/mL
same,MIC90,Staphylococcus [1],> 2 µg/mL
same,inhibition at 0.25 µg/mL,Enterococcus faecalis [2],3.9%
same,inhibition at 0.12 µg/mL,Enterococcus faecalis [3],70.2%
same,inhibition at 0.12 µg/mL,Enterococcus faecalis [4],2.6%
same,MIC50,Staphylococcus aureus [5],1 µg/mL
same,MIC90,Staphylococcus aureus [5],1 µg/mL
same,inhibition (INH),[6],90.3%
same,inhibition (INH),Enterococcus faecium [7],0.1%
same,MIC50,Streptococcus [8],0.5 µg/mL
same,MIC90,Streptococcus [8],0.5 µg/mL
same,inhibition at 0.5 µg/mL,Enterococcus faecalis [9],4.3%
same,inhibition at 0.06 µg/mL,Enterococcus faecium [10],0.3%
same,inhibition at 4 µg/mL,Enterococcus faecium [11],33.1%
same,inhibition at 0.06 µg/mL,Enterococcus faecium [12],56%
same,inhibition (INH),Streptococcus sp. [13],97.1%
same,inhibition at 2 µg/mL,Enterococcus faecalis [14],85.7%
same,Activity,Streptococcus [15],100%
same,Activity,Staphylococcus aureus [16],>99.9%
same,inhibition (INH),Enterococcus faecium [17],26.1%
same,inhibition at 0.12 µg/mL,Enterococcus faecium [18],1.2%
same,inhibition (INH),Enterococcus faecalis [19],9.5%
same,inhibition at 0.12 µg/mL,[20],99.6%
same,inhibition at 0.12 µg/mL,Enterococcus faecium [21],71.6%
same,inhibition at 0.06 µg/mL,Streptococcus sp. [22],97.1%
same,inhibition at 4 µg/mL,Enterococcus faecalis [23],91.7%
same,inhibition at 0.06 µg/mL,[24],99.6%
same,inhibition at 1 µg/mL,Enterococcus faecium [25],90.3%
same,inhibition at 0.25 µg/mL,Enterococcus faecium [26],77.6%
same,inhibition at 0.5 µg/mL,Enterococcus faecium [27],6.6%
same,inhibition at 1 µg/mL,Enterococcus faecalis [28],4.3%
same,inhibition at 4 µg/mL,Enterococcus faecium [29],97.8%
same,Activity,Streptococcus [30],99.9%
same,inhibition at 2 µg/mL,Enterococcus faecium [31],18.3%
same,inhibition at 0.06 µg/mL,[32],98%
same,inhibition (INH),Enterococcus faecalis [33],0.4%
same,Activity,Staphylococcus aureus [34],0%
same,inhibition at 0.25 µg/mL,Enterococcus faecalis [35],70.2%
same,inhibition at 1 µg/mL,Enterococcus faecium [36],11.5%
same,Activity,Staphylococcus aureus [37],0%
same,inhibition at 0.12 µg/mL,Streptococcus sp. [38],100%
same,inhibition at 0.06 µg/mL,[39],99.9%
same,inhibition (INH),[40],95.6%
same,Activity,Staphylococcus [41],>99.9%
same,inhibition at 1 µg/mL,Enterococcus faecalis [42],78.6%
same,Activity,Staphylococcus aureus [43],>99.9%
same,inhibition at 0.25 µg/mL,Enterococcus faecium [44],3.1%
same,inhibition at 0.25 µg/mL,[45],100%
same,MIC50,Staphylococcus aureus [46],1 µg/mL
same,MIC90,Staphylococcus aureus [46],1 µg/mL
same,Activity,Staphylococcus [47],0%
same,inhibition at 0.5 µg/mL,Enterococcus faecalis [48],75%
same,inhibition (INH),[49],98.8%
